Where a name gives a salt, the structure may show the parent alone.
Target: T1, rat GPR120 (Rattus norvegicus, UniProt Q2AC31)
T1 construct: expressed in transfected cells; host or cells: HEK293
T1 sequence (Q2AC31 1-361): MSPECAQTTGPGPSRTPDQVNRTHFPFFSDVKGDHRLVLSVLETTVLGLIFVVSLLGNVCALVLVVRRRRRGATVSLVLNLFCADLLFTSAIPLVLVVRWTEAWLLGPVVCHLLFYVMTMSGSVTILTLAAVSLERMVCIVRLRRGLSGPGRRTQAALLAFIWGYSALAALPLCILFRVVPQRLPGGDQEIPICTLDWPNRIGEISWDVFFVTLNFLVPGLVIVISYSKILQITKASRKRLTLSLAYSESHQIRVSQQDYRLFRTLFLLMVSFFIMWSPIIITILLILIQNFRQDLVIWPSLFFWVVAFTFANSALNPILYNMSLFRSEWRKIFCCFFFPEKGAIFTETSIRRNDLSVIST
Assay: Rat GPR120 IP1 assay (inositol phosphate turnover)
Type: cell-based
Conditions: IP1 accumulation in HEK293 cells stably expressing rat GPR120
Description: The binding of small molecule agonists to the G-protein-coupled receptor GPR120 activates phospholipase C, and leads to the generation of inositol 1,4,5-trisphosphate (InsP3 or IP3). IP3 is subsequently de-phosphorylated to IP1, which accumulates in cells and is stable in the presence of lithium chloride.
In the present method, agonist-induced activation of the human and rat GPR120 receptor was monitored by measuring the accumulation of IP1 in CHO-K1 cells that were stably expressing the short form of human GPR120 (Accession #NM_001195755) or HEK293 cells stably expressing rat GPR120 (Accession #NM_001047088). Following agonist addition, GPR120 activation and subsequent accumulation of IP1 was measured using a homogeneous Time Resolved Fluorescence-based ELISA commercially available from CisBio (IP-one ELISA Kit). The IP-One ELISA was a competitive immunoassay which uses IP1 labeled with […] and a terbium cryptate-labeled anti-IP1 monoclonal antibody. […] The signal loss was then back calculated to IP1 concentration using an IP1 standard curve. Determination of IP1 concentration was a direct measure of GPR120 activation and was used to determine compound potency (EC50).
Human GPR120 stable cell-lines were generated in CHO cells. The expression plasmids were transfected using lipofectamine (Life Technologies) following manufacturer's instructions. Stable cell-lines were generated following drug selection and single cell cloning. Rat GPR120 stable cell-lines were generated in HEK cells using the Jump-In™ cell engineering platform (Life Technologies) following manufacturer's instructions. Stable cell-lines were generated following drug selection and single cell cloning.
The assay was performed in 384-well format. CHO cells stably expressing human GPR120 were plated at 20,000 cells per well in growth medium (DMEM/F12, 10% fetal calf serum). HEK293 cells stably expressing rat GPR120 were plated at […] per well in growth medium (DMEM, 10% fetal calf serum). Cell plates were then incubated 16 hours at 37 degrees in a 5% CO2 incubator. Measurement of Inositol Phosphate Turnover (IP1) was performed using the CisBio IP-One kit (Part number 62IPAPEB). After the 16 hour incubation, the growth media was removed by centrifugation using the BlueWasher (AusWasher GUI Ver. v1.0.1.8) Protocol #21-“Light Dry” and 10 μl of stimulation buffer (prepared as described in the kit) was added to each well. In a separate plate, compounds were diluted in DMSO (200-fold over the final concentration in the assay well) and 50 nl was acoustically transferred to the appropriate well in the assay cell plate. The plates were then incubated for 60 minutes at 37 degrees in a 5% CO2 incubator. 10 μl of detection buffer (also prepared as described in the IP-One kit) was added to each well and the plates were incubated at room temperature for 60 minutes in the dark. The plates were then read in a Perkin ElmerEnVision or equivalent reader able to measure FRET. Fluorescent ratio of emission at 665 and 620 nm was then converted to the IP1 concentration by back calculating from an IP1 standard curve prepared at the time of the assay. The data was normalized to % activity using a reference compound, and the EC50 values were determined using a standard 4-parameter fit.

| EC50 [nM] | Compound |
| --- | --- |
| 36 | Oc1cc(-c2cnc(O[C@H]3C[C@](F)(c4ccnc(OC5CC5)c4)C3)cn2)on1 [Example 91, ammonium 5-[5-({cis-3-[2-(cyclopropyloxy)pyridin-4-yl]-3-fluoro-cyclobutyl}oxy)pyrazin-2-yl]isoxazol-3-olate] |
| 4.7 | Oc1cc(-c2ccc(O[C@H]3C[C@](F)(c4ccnc(OC5CCC5)c4)C3)nc2)on1 [Example 87, sodium 5-[6-({cis-3-[2-(cyclobutyloxy)pyridin-4-yl]-3-fluorocyclobutyl}oxy)pyridin-3-yl]isoxazol-3-olate] |
| 33 | Oc1cc(-c2cnc(O[C@H]3C[C@](F)(c4ccnc(OC5CCC5)c4)C3)cn2)on1 [Example 96, sodium 5-[5-({cis-3-[2-(cyclobutyloxy)pyridin-4-yl]-3-fluorocyclobutyl}oxy)pyrazin-2-yl]isoxazol-3-olate] |
| 100 | Oc1cc(-c2ccc(O[C@H]3C[C@H](c4ccc(C(F)(F)F)cn4)C3)nc2)on1 [Example 23, 5-[6-({trans-3-[5-(trifluoromethyl)pyridin-2-yl]cyclobutyl}oxy)pyridin-3-yl]isoxazol-3-ol] |
| 890 | CCOc1cc([C@]2(F)C[C@@H](Oc3cnc(-c4cc(O)no4)cn3)C2)ccn1 [Example 94, 5-(5-{[cis-3-(2-ethoxypyridin-4-yl)-3-fluorocyclobutyl]oxy}pyrazin-2-yl)isoxazol-3-ol] |
| 18 | Oc1cc(-c2cnc(O[C@H]3C[C@@](F)(c4ccnc(OC5CCC5)c4)C3)cn2)on1 [Example 95, 5-[5-({trans-3-[2-(cyclobutyloxy)pyridin-4-yl]-3-fluorocyclobutyl}oxy)pyrazin-2-yl]isoxazol-3-ol] |
| 42.2 | Oc1cc(-c2ccc(O[C@H]3C[C@@](F)(c4ccnc(OC5CCC5)c4)C3)nc2)on1 [Example 88, 2-(cyclobutyloxy)-4-(trans-1-fluoro-3-{[5-(3-hydroxyisoxazol-5-yl)pyridinium-2-yl]oxy}cyclobutyl)pyridinium bis(trifluoroacetate)] |

Continued, compound first:

| Compound | EC50 [nM] |
| --- | --- |
| Oc1cc(-c2cnc(O[C@H]3C[C@H](Oc4cccc(OC(F)(F)F)c4)C3)cn2)on1 [Example 61, sodium 5-[5-({trans-3-[3-(trifluoromethoxy)phenoxy]-cyclobutyl}oxy)pyrazin-2-yl]isoxazol-3-olate] | 1.8 |
| Oc1cc(-c2ccc(O[C@H]3C[C@H](c4ccc(Cl)cc4)C3)cn2)on1 [Example 110, 5-{[trans-3-(4-chlorophenyl)cyclobutyl]oxy}-2-(3-hydroxyisoxazol-5-yl)pyridinium trifluoroacetate] | 1.1 |
| Oc1cc(-c2ccc(O[C@H]3C[C@@H](c4ccc(Cl)cc4)C3)cn2)on1 [Example 111, 5-{[cis-3-(4-chlorophenyl)cyclobutyl]oxy}-2-(3-hydroxyisoxazol-5-yl)pyridinium trifluoroacetate] | 0.8 |
| Oc1cc(-c2cnc(O[C@H]3C[C@H](c4ccc(Cl)cc4)C3)nc2)on1 [Example 115, 5-(2-{[trans-3-(4-chlorophenyl)cyclobutyl]oxy}pyrimidin-5-yl)isoxazol-3-ol] | 5.8 |
| Oc1cc(-c2cnc(O[C@H]3C[C@@](F)(c4nc(C(F)(F)F)cs4)C3)cn2)on1 [Example 102, ammonium 5-[5-({trans-3-fluoro-3-[4-(trifluoromethyl)-1,3-thiazol-2-yl]cyclobutyl}oxy)pyrazin-2-yl]isoxazol-3-olate] | 1160 |
| Oc1cc(-c2ccc(O[C@H]3C[C@H](c4ccc(F)cc4)C3)cc2)on1 [Example 12, 5-(4-{[trans-3-(4-fluorophenyl)cyclobutyl]oxy}phenyl)isoxazol-3-ol] | 1.5 |

— patent publication US10864211B2, “Hydroxy isoxazole compounds useful as GPR120 agonists” (Merck Sharp & Dohme Corp., priority 2016, dated 2020)
